Data as given in ChEMBL document CHEMBL6153032, “Discovery of a highly potent, N-terminal domain-targeting degrader of AR-FL/AR-V7 for the treatment of prostate cancer” (Eur J Med Chem, 2025).
The source made the active and inactive calls.

Key:
CWR22R [1] = assay: Downregulation of KLK2 mRNA level in human 22Rv1 cells incubated for 24 hrs by qRT-PCR analysis; format: functional, cell-based; details: dose 100-500 nM
CWR22R [2] = assay: Downregulation of UBE2C mRNA level in human 22Rv1 cells incubated for 24 hrs by qRT-PCR analysis; format: functional, cell-based; details: dose 100-500 nM
CWR22R [3] = assay: Antitumor activity against human 22Rv1 cells xenografted in BALB/c nude mouse assessed as reduction in AR level at 10 mg/kg, iv administered once daily for 21 days; format: functional, organism-based; details: time 21.0 day

Measured: Activity

CC(C)(c1ccc(OCCNc2cccc3c2C(=O)N(C2CCC(=O)NC2=O)C3=O)cc1)c1ccc(OCc2cccc(N3CCOCC3)n2)cc1 (stereo not drawn)
active: CWR22R [1] Dose-dependent-effect | CWR22R [2] Dose-dependent-effect | CWR22R [3]
